Values of other authors as cited in patent US20240156825A1, “USE OF SELECTIVE VEGFR2 AND FGFR1 INHIBITORS” (Fountain Therapeutics Inc., priority 2022, published 2024).
Like-named read-outs stand apart in the source and are kept apart here.

Key:
[1] = system: any gene target; details: next lowest IC50 value to any gene target, read-out: Min IC50_μM, cited from earlier work
[2] = molecular target: VEGFR2 (Homo sapiens, UniProt P35968); details: reported IC50 to VEGFR2, read-out: VEGFR2 IC50_μM, cited from earlier work
[3] = Table 3, selective inhibitors of VEGFR2

Sequence of VEGFR2 (P35968 20-1356, species assumed): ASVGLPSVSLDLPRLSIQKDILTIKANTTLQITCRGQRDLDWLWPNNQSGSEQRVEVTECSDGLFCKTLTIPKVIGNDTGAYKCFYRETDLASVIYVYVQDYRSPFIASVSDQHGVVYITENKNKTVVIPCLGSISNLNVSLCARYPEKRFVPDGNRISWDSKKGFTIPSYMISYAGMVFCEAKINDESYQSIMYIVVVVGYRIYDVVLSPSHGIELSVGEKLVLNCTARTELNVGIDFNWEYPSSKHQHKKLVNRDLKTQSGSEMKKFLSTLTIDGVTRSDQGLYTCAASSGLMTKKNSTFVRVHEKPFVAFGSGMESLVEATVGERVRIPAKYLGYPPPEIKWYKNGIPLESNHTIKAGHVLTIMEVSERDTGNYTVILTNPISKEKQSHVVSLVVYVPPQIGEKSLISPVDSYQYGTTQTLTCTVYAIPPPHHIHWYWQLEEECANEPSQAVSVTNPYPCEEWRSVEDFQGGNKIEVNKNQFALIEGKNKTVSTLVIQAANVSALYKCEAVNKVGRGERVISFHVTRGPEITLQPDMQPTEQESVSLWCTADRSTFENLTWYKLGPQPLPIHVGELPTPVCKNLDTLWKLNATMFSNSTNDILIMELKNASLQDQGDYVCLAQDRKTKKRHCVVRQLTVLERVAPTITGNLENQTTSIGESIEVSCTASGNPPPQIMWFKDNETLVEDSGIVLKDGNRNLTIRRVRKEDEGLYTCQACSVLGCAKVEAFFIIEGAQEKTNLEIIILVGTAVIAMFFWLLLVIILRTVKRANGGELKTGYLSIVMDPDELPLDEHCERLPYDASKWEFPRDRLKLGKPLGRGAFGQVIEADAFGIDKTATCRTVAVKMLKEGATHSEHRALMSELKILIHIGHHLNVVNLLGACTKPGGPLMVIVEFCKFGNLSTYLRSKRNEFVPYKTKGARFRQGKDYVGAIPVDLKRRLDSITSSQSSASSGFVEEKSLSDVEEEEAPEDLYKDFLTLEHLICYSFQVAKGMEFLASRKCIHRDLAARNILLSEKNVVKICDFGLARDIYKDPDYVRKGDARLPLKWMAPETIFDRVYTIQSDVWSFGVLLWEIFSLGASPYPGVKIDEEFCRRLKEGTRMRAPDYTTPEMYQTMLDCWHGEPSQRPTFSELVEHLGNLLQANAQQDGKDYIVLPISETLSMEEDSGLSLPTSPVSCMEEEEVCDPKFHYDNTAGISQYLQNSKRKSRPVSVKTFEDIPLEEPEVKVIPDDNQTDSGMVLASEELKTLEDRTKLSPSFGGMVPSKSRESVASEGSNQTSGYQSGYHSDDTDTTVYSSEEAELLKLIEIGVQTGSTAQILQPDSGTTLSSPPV

SMILES | IC50 [1] | IC50 [2] | IC50 ([1]; Table 3) | IC50 [2, 3]
COCCNC(=O)c1cccc2cc(Oc3ccnc4cc(OC)c(OC)cc34)ccc12 [compound 11362483] | 73 nM | 12 nM | – | –
COc1cc2c(Nc3ccc(Cl)cc3F)ncnc2cc1OCCN(C)c1ccncc1 [compound 5329026] | 100 nM | 6 nM | – | –
COc1cc2c(Nc3ccc(Cl)c(Cl)c3)ncnc2cc1OC[C@H]1CN2CCC[C@@H]2CO1 [compound 57802880] | – | – | 50 nM | 50 nM
COc1cc2ncnc(Oc3ccc4c(C(=O)NC5CC5)cccc4c3)c2cc1OC [compound 24823093] | 360 nM | 2.88 nM | – | –
C[C@@H](Nc1ncnc2[nH]c(-c3ccc(CN4CCN(CCCCCCC(=O)NO)CC4)cc3)cc12)c1ccccc1 [compound 24900443] | 100 nM | 100 nM | – | –
COc1cc(C2=C(c3cn(COC(C)(C)C)c4ccccc34)CNC2=O)cc(OC)c1OC [compound 24894992] | – | – | 4400 nM | 4400 nM
O=C(CSC(=S)N1CCCCC1)Nc1cccc(NC(=O)c2ccccn2)c1 [compound 155562216] | 84 nM | 27 nM | – | –
COc1ccc(-c2cnc3cncc(Nc4ccc(N5CCCCC5)cc4)c3n2)cc1 [compound 57332844] | 2270 nM | 2050 nM | – | –
CCOc1cc2c(Nc3ccc(Cl)c(Cl)c3)ncnc2cc1OCC1CN(C)CCO1 (stereo not shown) [compound 57802695] | 50 nM | 50 nM | – | –
Cn1ccc2ncnc(Oc3ccc(NC(=O)Nc4cccc(C(F)(F)F)c4)c(F)c3)c21 [compound 15949613] | 15 nM | 0.033 nM | – | –
COc1cc2c(Nc3ccc(Br)cc3F)ncnc2cc1OCCC1CCN(C)CC1 [compound 5329053] | 60 nM | 6 nM | – | –
COc1cc2c(Nc3ccc(Cl)c(Cl)c3)ncnc2cc1OCCC1CNC(C)(C)CO1 (stereo not shown) [compound 57802637] | 50 nM | 50 nM | – | –
COc1cc2c(Nc3ccc(Cl)cc3F)ncnc2cc1OCCCN1CCN(C)CC1 [compound 21701597] | 50 nM | 20 nM | – | –
Cc1ccc(NC(=O)c2ccc(C(C)(C)C)s2)cc1Nc1nc2ccccc2n1-c1cc(N)ncn1 [compound 15949617] | 4 nM | 4 nM | – | –
COc1cc2nccc(Oc3ccc4c(C(=O)NC5CC5)cccc4c3)c2cc1C(N)=O [compound 11750694] | 185 nM | 0.37 nM | – | –
COc1cc2c(Nc3ccc(Cl)c(Cl)c3)ncnc2cc1OC[C@@H]1CO[C@H]2[C@@H]1OC[C@@H]2OC [compound 66955051] | – | – | 50 nM | 50 nM
CCNC(=O)Nc1ccc(Oc2ncccc2-c2ccnc(NC)n2)c2ccccc12 [compound 46890315] | 130 nM | 48 nM | – | –
COc1cc2c(Nc3ccc(Cl)c(Cl)c3)ncnc2cc1OCC1CN(C(=O)c2cccnc2Cl)CCO1 (stereo not shown) [compound 57802694] | 50 nM | 50 nM | – | –
CCN1CCCCC1c1nc(COc2cc3ncnc(Nc4ccc(Cl)c(Cl)c4)c3cc2OC)no1 (stereo not shown) [compound 57802919] | – | – | 50 nM | 50 nM
COc1cc2c(Nc3ccc(Cl)c(Cl)c3)ncnc2cc1OCc1csc(C2CCCCN2)n1 (stereo not shown) [compound 57802866] | – | – | 50 nM | 50 nM
COc1cc2c(Nc3ccc(Br)c(Cl)c3)ncnc2cc1O[C@@H]1CCOC1 [compound 58013780] | – | – | 50 nM | 50 nM

SMILES | IC50 [1] | IC50 [2] | IC50 ([1]; Table 3) | IC50 [2, 3]
COc1ccc(NC(=O)Nc2ccc3c(c2)NC(=O)/C3=C\c2[nH]cc(C(=O)O)c2C)cc1 [compound 46898039] | – | – | 0.5 nM | 0.5 nM
O=C(Nc1ccc(Oc2ncnc3sc4c(c23)CCCC4)cc1)Nc1cccc(Br)c1 [compound 122193773] | 17 nM | 11 nM | – | –
O=C(NC1CC1)c1cc(NCc2cnc(Nc3ccccn3)s2)c(F)cc1F [compound 11632737] | 200 nM | 23 nM | – | –
C[C@@H]1CN(C(=O)CCCC(=O)N2C[C@@H](C)c3c2cc(O)c2ccccc32)c2cc(O)c3ccccc3c21 [compound 155536201] | 540 nM | 330 nM | – | –
COc1cc2c(Nc3ccc(C)cc3F)ncnc2cc1OCC1CCNCC1 [compound 5329049] | 250 nM | 30 nM | – | –
COc1cc2ncnc(Nc3cccc(Cl)c3)c2cc1OCCC(=O)NO [compound 122195525] | 645 nM | 476 nM | – | –
Cc1nc2ccc(N(C)c3ccnc(Nc4cccc(S(N)(=O)=O)c4)n3)cc2n1C [compound 24949704] | 1700 nM | 63 nM | – | –
Clc1cccc(Nc2cncc(-c3cncc(NCCCn4cccn4)c3)n2)c1 [compound 5330391] | 326 nM | 93.3 nM | – | –
COc1cc2c(Nc3ccc(Cl)c(Cl)c3)ncnc2cc1OC[C@H]1CN2CCC[C@H]2CO1 [compound 66838546] | – | – | 50 nM | 50 nM
COc1cc2c(Nc3ccc(Cl)cc3F)ncnc2cc1OCCCN1CCCC1 [compound 73352657] | – | – | 8 nM | 8 nM
COc1cc2c(Nc3ccc(Cl)c(Cl)c3)ncnc2cc1OCC1CN(S(C)(=O)=O)CCO1 (stereo not shown) [compound 57802901] | – | – | 50 nM | 50 nM
COc1cc2nccc(Oc3ccc4c(C(=O)NC5CCCC5)cccc4c3)c2cc1OC [compound 24822599] | 620 nM | 9 nM | – | –
COc1cc2c(Nc3c(F)cc(Br)cc3F)ncnc2cc1OCC1CCN(C)CC1 [compound 5329046] | 100 nM | 10 nM | – | –
CCN1CCN(Cc2ccc(NC(=O)c3ccc(C)c(NC(=O)c4cncc(-c5cccs5)c4)c3)cc2C(F)(F)F)CC1 [compound 42628503] | – | – | 500 nM | 500 nM
COc1cccc(-c2ccc3c(c2)NC(=O)/C3=C\c2[nH]c3c(c2CCC(=O)O)CCCC3)c1 [compound 5329169] | 100 nM | 70 nM | – | –
COc1cc2c(Nc3ccc(Cl)c(Cl)c3)ncnc2cc1OCC1CN(C(=O)C2CCCC2)CCO1 (stereo not shown) [compound 57802868] | – | – | 50 nM | 50 nM
CCN1CCCOC(COc2cc3ncnc(Nc4ccc(Cl)c(Cl)c4)c3cc2OC)C1 (stereo not shown) [compound 57802623] | – | – | 50 nM | 50 nM
COc1cc2c(Nc3ccc(Cl)c(Cl)c3)ncnc2cc1OCC1CN(C)C(C)(C)C(=O)O1 (stereo not shown) [compound 57802818] | – | – | 50 nM | 50 nM
COc1ccc(Nc2ncc3c(n2)-c2ccccc2NC(=O)C3)cc1O [compound 16730105] | 640 nM | 73 nM | – | –
OCCCCNc1cncc(-c2cncc(Nc3cccc(Cl)c3)n2)c1 [compound 5330388] | 2360 nM | 63 nM | – | –
COc1cc2c(Nc3ccc(Cl)cc3F)ncnc2cc1OCCN1CCN(C)CC1 [compound 4913175] | 100 nM | 30 nM | – | –

SMILES | IC50 [1] | IC50 [2] | IC50 ([1]; Table 3) | IC50 [2, 3]
COc1cc2c(Nc3ccc(Cl)c(Cl)c3)ncnc2cc1OCc1csc(C2CCCN(C)C2)n1 (stereo not shown) [compound 57802607] | – | – | 50 nM | 50 nM
COc1cc2c(Nc3c(F)cc(Br)cc3F)ncnc2cc1OCC1CCNCC1 [compound 5329051] | 70 nM | 15 nM | – | –
COc1cc2c(Nc3cc(Cl)c(Br)cc3F)ncnc2cc1OC[C@@H]1CN2CCOC[C@H]2CO1 [compound 66838467] | – | – | 50 nM | 50 nM
COc1cc2c(Nc3ccc(Cl)c(Cl)c3)ncnc2cc1OCc1csc(N2CCN(C)CC2)n1 [compound 57802910] | – | – | 50 nM | 50 nM
C[C@@H](Nc1ncnc2[nH]c(-c3ccc(CNCCCCCC(=O)NO)cc3)cc12)c1ccccc1 [compound 24900643] | 100 nM | 100 nM | – | –
CS(=O)(=O)Cc1cccc(Nc2nccc(Oc3ccc4c(C(=O)Nc5cccnc5)cccc4c3)n2)c1 [compound 127037812] | 4.9 nM | 0.5 nM | – | –
CCCN1CCCOC(COc2cc3ncnc(Nc4ccc(Cl)c(Cl)c4)c3cc2OC)C1 (stereo not shown) [compound 57802675] | 50 nM | 50 nM | – | –
COc1cc2c(Nc3ccc(Cl)cc3F)ncnc2cc1OCC1CCNCC1 [compound 73349643] | 60 nM | 50 nM | – | –
COc1cc2c(Nc3ccc(Br)c(C)c3)ncnc2cc1OCC1CN(C)CCO1 (stereo not shown) [compound 57802842] | – | – | 50 nM | 50 nM
O=C(Nc1ccccc1)Nc1ccc2c(c1)NC(=O)/C2=C\c1ccc[nH]1 [compound 46182735] | 2.3 nM | 1 nM | – | –
COc1cc2c(Oc3ccc(NC(=O)C4(C(=O)Nc5ccc(F)cc5)CC4)cc3F)ccnc2cc1OCCCC(=O)NO [compound 71466525] | 19 nM | 12 nM | – | –
COc1cc2c(Nc3c(F)cc(Cl)cc3F)ncnc2cc1OCC1CCN(C)CC1 [compound 5329045] | 60 nM | 25 nM | – | –
COCCOc1cc2ncnc(Nc3cc(O)c(Cl)cc3F)c2cc1OC [compound 5329013] | – | – | 2 nM | 2 nM
COc1cc2c(Nc3ccc(Cl)c(Cl)c3F)ncnc2cc1OCC1CN(C)C(C)(C)CO1 (stereo not shown) [compound 57802653] | 50 nM | 50 nM | – | –
C[C@@H](Nc1ncnc2[nH]c(-c3ccc(OCCCCC(=O)NO)cc3)cc12)c1ccccc1 [compound 24900507] | 100 nM | 100 nM | – | –
COCCNC(=O)c1cccc2cc(Oc3ncnc4cc(OC)c(OC)cc34)ccc12 [compound 24823252] | 385 nM | 314 nM | – | –
COc1cc2c(Nc3ccc(Br)c(Cl)c3F)ncnc2cc1OC[C@H]1CN2CCOC[C@H]2CO1 [compound 10370400] | – | – | 50 nM | 50 nM
COc1cc2c(Nc3ccc(Br)c(Cl)c3F)ncnc2cc1OC[C@@H]1CN(C)CC(=O)N1 [compound 57802892] | – | – | 50 nM | 50 nM
COc1cc2c(Nc3ccc(Br)cc3F)ncnc2cc1OCCC1CCNCC1 [compound 5329054] | – | – | 40 nM | 40 nM
O=C(CCCCCCNCc1cc(Oc2ccc(NC(=O)Nc3ccc(Cl)c(C(F)(F)F)c3)cc2)ccn1)NO [compound 25072217] | 100 nM | 100 nM | – | –
